Like-named read-outs stand apart in the source and are kept apart here.
Tests used:
[1] = target: T1, alpha (ERα) estrogen receptor (Homo sapiens, UniProt P03372); settings: cited from earlier work
T1 sequence (P03372 1-595): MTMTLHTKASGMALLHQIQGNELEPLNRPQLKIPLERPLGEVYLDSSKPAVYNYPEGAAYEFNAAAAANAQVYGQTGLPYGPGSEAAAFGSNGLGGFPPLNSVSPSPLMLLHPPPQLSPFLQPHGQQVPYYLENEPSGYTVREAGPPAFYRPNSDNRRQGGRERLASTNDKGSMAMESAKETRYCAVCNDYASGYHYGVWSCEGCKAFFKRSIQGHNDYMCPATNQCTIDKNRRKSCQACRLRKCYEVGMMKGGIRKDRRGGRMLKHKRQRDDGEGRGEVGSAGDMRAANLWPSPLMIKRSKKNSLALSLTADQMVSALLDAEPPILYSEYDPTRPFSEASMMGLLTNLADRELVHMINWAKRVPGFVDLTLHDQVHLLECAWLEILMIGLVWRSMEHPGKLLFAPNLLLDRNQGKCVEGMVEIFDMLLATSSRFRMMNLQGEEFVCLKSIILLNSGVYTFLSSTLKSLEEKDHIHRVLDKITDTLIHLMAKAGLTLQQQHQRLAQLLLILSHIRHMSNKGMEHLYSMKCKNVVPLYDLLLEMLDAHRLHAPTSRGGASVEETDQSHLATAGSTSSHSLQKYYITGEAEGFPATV

[2] = target: beta (ERβ) estrogen receptor (Rattus norvegicus, UniProt Q62986); settings: cited from earlier work
Chain of beta (ERβ) estrogen receptor (Q62986 whole entry): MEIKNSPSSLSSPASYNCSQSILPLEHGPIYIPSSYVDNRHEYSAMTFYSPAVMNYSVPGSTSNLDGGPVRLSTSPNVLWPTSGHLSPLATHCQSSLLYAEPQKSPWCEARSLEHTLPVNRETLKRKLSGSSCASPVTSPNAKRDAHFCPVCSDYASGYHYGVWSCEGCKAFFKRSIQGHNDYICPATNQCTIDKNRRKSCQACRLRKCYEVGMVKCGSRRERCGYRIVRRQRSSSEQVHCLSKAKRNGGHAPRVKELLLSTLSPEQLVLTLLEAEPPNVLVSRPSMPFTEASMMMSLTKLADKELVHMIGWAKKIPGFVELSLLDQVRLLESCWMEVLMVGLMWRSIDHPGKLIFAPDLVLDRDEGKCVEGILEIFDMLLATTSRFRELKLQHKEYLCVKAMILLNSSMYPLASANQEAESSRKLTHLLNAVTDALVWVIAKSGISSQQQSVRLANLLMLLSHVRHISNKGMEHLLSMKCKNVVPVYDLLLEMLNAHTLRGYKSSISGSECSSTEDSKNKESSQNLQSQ

estrogen receptor [3] = test: estrogen receptor relative binding affinity, expanded training set of 107 compounds; settings: input class, 107-compound training set
From the text: The training set included weak estrogen receptor binders in addition to strong and medium estrogen receptor binders.
For this model, strong estrogen receptor binders were defined as having log(RBA)>−0.25 and weak estrogen receptor binders were defined as having log(RBA)<−3.0. Medium estrogen receptor binders were defined as having log(RBA) in between.

estrogen receptor [4] = test: estrogen receptor binding class of the 30-compound training set
From the text: Two Spectral Data-Activity Relationship (SDAR) models were established, based on ^13C NMR and EI MS spectra, for 30 estrogenic chemicals whose relative binding affinities (RBA) for the alpha (ERα) and beta (ERβ) estrogen receptors are available.
Strong binders to the estrogen receptor were classified as having a log (RBA) over 0.0, and medium binders to the estrogen receptor were classified as having a log (RBA) of less than or equal to 0.0.

estrogen receptor [5] = settings: 107-compound training set; cited from earlier work
[6] = quantum yield for photosensitized production of singlet oxygen; type: physicochemical; settings: class from singlet oxygen quantum yield
From the text: Phototosensitized oxidations involving singlet oxygen, a strong oxidant, are implicated in photodynamic inactivation of viruses and cells, in phototherapy for cancer, in photocarcinogenesis and in photodegradation of dyes and polymers. Quenching of excited singlet and triplet states of many substances by ground state molecular oxygen produces singlet oxygen; the lowest electronically excited singlet state of molecular oxygen. A compilation of the quantum yields for the formation of singlet oxygen in fluid solutions for over 700 substances is available from the Notre Dame Radiation Laboratory—Radiation Chemistry Data Center.
The compounds are divided into two endpoint classes based upon having a high quantum yield for production of singlet oxygen (H, QY>0.50) or a low quantum yield for production of singlet oxygen (L, QY<0.50).

[7] = formation of singlet oxygen in fluid solutions; cited from earlier work
[8] = SDAR training input endpoint class, 30 compounds
[9] = log of relative binding affinity, 17-β-estradiol RBA = 100

SMILES	Log-(RBA) alpha [1]	Log-(RBA) beta [2]	Class (estrogen receptor [3])	RBA class in words (estrogen receptor [4])	Class Input (estrogen receptor [4]; [8])	log RBA (estrogen receptor [5])	Class Input (estrogen receptor [4])	Log-(RBA) alpha [1, 9]	Log-(RBA) beta [2, 9]	Endpoint Class [6]	Quantum Yield [7]
C[C@]12CC[C@@H](O)C[C@@H]1CC[C@@H]1[C@@H]2CC[C@]2(C)[C@@H](O)CC[C@@H]12 [3α-Androstanediol, 5α-Androstane-3α,17β-diol]	−1.15	−0.52	M (Medium estrogen receptor binders were defined as having log(RBA) in between)	medium	M (medium binders to the estrogen receptor were classified as having a log (RBA) of less than or equal to 0.0)	−2.67	–	–	–	–	–
C[C@]12CC[C@H](O)C[C@@H]1CC[C@@H]1[C@@H]2CC[C@]2(C)[C@@H](O)CC[C@@H]12 [3β-Androstanediol, 5α-Androstane-3β,17β-diol]	0.48	0.85	M (Medium estrogen receptor binders were defined as having log(RBA) in between)	–	–	−0.92	S (key: Strong binders to the estrogen receptor were classified as having a log (RBA) over 0.0; M: medium binders to the estrogen receptor were classified as having a log (RBA) of less than or equal to 0.0)	–	–	–	–
C[C@]12CC[C@@H]3c4ccc(O)c(O)c4CC[C@H]3[C@@H]1CC[C@@H]2O [4-OH-Estradiol, 4-hydroxy-estradiol]	–	–	S (strong estrogen receptor binders were defined as having log(RBA)>−0.25)	–	S (Strong binders to the estrogen receptor were classified as having a log (RBA) over 0.0)	–	–	1.11	0.85	–	–
C[C@]12CCC(=O)C[C@@H]1CC[C@@H]1[C@@H]2CC[C@]2(C)C(=O)CC[C@@H]12 [5α-Androstanedione]	<−2.0	<−2.0	–	medium	–	–	M (key: Strong binders to the estrogen receptor were classified as having a log (RBA) over 0.0; M: medium binders to the estrogen receptor were classified as having a log (RBA) of less than or equal to 0.0)	–	–	–	–
C[C@]12CCC(=O)C[C@H]1CC[C@@H]1[C@@H]2CC[C@]2(C)C(=O)CC[C@@H]12 [5β-Androstanedione]	<−2.0	<−2.0	–	medium	–	–	M (key: Strong binders to the estrogen receptor were classified as having a log (RBA) over 0.0; M: medium binders to the estrogen receptor were classified as having a log (RBA) of less than or equal to 0.0)	–	–	–	–
CC(C)(c1ccc(O)cc1)c1ccc(O)cc1 [Bisphenol A, 4,4′-isopropylidenediphenol]	–	–	M (Medium estrogen receptor binders were defined as having log(RBA) in between)	–	M (medium binders to the estrogen receptor were classified as having a log (RBA) of less than or equal to 0.0)	−2.11	–	−1.30	−0.48	–	–
C[C@]12CC[C@H](O)CC1=CC[C@@H]1[C@@H]2CC[C@]2(C)C(=O)CC[C@@H]12 [Dehydroepiandroster-one]	−1.40	−1.15	–	–	M (medium binders to the estrogen receptor were classified as having a log (RBA) of less than or equal to 0.0)	–	–	–	–	–	–
C/C=C(/C(=C/C)c1ccc(O)cc1)c1ccc(O)cc1 [Dienestrol]	–	–	S (strong estrogen receptor binders were defined as having log(RBA)>−0.25)	–	S (Strong binders to the estrogen receptor were classified as having a log (RBA) over 0.0)	1.57	–	2.35	2.61	–	–
CC[C@H](c1ccc(O)cc1)[C@@H](CC)c1ccc(O)cc1 [Hexestrol]	–	–	S (strong estrogen receptor binders were defined as having log(RBA)>−0.25)	–	S (Strong binders to the estrogen receptor were classified as having a log (RBA) over 0.0)	2.48	–	2.48	2.37	–	–
COc1ccc(C(c2ccc(OC)cc2)C(Cl)(Cl)Cl)cc1 [Methoxychlor]	−2.00	−0.89	–	–	M (medium binders to the estrogen receptor were classified as having a log (RBA) of less than or equal to 0.0)	−3.2	–	–	–	–	–
C#C[C@]1(O)CC[C@H]2[C@@H]3CCc4cc(O)ccc4[C@H]3[C@@H](OC)C[C@@]21C [Moxestrol]	–	–	S (strong estrogen receptor binders were defined as having log(RBA)>−0.25)	–	S (Strong binders to the estrogen receptor were classified as having a log (RBA) over 0.0)	1.14	–	1.63	0.70	–	–
C[C@]12CC[C@H]3[C@@H](CCC4=CC(=O)CC[C@@H]43)[C@@H]1CC[C@@H]2O [Nandrolone]	−2.00	−0.64	–	–	M (medium binders to the estrogen receptor were classified as having a log (RBA) of less than or equal to 0.0)	–	–	–	–	–	–
CC(=O)[C@H]1CC[C@H]2[C@@H]3CCC4=CC(=O)CC[C@]4(C)[C@H]3CC[C@]12C [Progesterone]	–	–	W (weak estrogen receptor binders were defined as having log(RBA)<−3.0)	–	M (medium binders to the estrogen receptor were classified as having a log (RBA) of less than or equal to 0.0)	–	–	−3.50	−3.50	–	–
C[C@]12CC[C@H]3[C@@H](CCC4=CC(=O)CC[C@@]43C)[C@@H]1CC[C@@H]2O [Testosterone]	−2.10	−2.10	–	–	M (medium binders to the estrogen receptor were classified as having a log (RBA) of less than or equal to 0.0)	–	–	–	–	–	–
O=c1c2ccccc2oc2ccccc12 [Xanthen-9-one]	–	–	–	–	–	–	–	–	–	L (low quantum yield for production of singlet oxygen (L, QY<0.50))	0.33
C[C@H]1CCC[C@@H](O)CCCCCc2cc(O)cc(O)c2C(=O)O1 [β-Zearanol]	–	–	–	–	M (medium binders to the estrogen receptor were classified as having a log (RBA) of less than or equal to 0.0)	–	–	−1.20	–	–	–

From US6898533B1, “Methods for predicting the biological, chemical, and physical properties of molecules from their spectral properties” (The United States of America as represented by the …, priority 2000, dated 2005)
